Laboratory results published in ChEMBL document CHEMBL4354880, “Synthesis and Structure-Activity Relationships of Arylsulfonamides as AIMP2-DX2 Inhibitors for the Development of a Novel Anticancer Therapy” (J Med Chem, 2020).
The source made the active and inactive calls. The rule behind the calls is not given here.

What was measured:
[1] = Toxicity in human H460 cells xenografted BALB/c SLC nu/nu mouse assessed as change in body weight at 50 mg/kg, ip administered every other day for 15 days and measured 4 times during compound dosing; details: in vivo, 360 h
A549 [2] = experiment: Antiproliferative activity against human A549 cells stably expressing AIMP2 DX2 isoform measured after 72 hrs by MTT assay; type: functional, cell-based
NCI-H460 [3] = experiment: Antitumor activity against human H460 cells xenografted in BALB/c SLC nu/nu mouse assessed as reduction in tumor weight at 50 mg/kg, ip administered every other day for 15 days and measured post-last dose; type: functional, organism-based
A549 [4] = details: Homo sapiens, 5 uM
Description: Inhibition of LgBiT-tagged PRKACA-SmBiT-tagged PRKAR2A (unknown origin) protein-protein interaction expressed in human A549 cells at 5 uM measured after 4 hrs by luminescence assay

[5] = Cytotoxicity against human WI26 cells assessed as reduction in cell viability measured after 72 hrs by MTT assay
NCI-H460 [6] = experiment: Cytotoxicity against human NCI-H460 3D spheroid cells assessed as reduction in cell viability measured after 72 hrs by Celltiter-glo assay
A549 [7] = experiment: cells; details: Homo sapiens, A549, 72 h
Description: Antiproliferative activity against human A549 cells measured after 72 hrs by MTT assay

NCI-H460 [8] = experiment: Antitumor activity against human H460 cells xenografted in BALB/c SLC nu/nu mouse assessed as reduction in tumor volume at 50 mg/kg, ip administered every other day for 15 days and measured 4 times during compound dosing; type: functional, organism-based
[9] = target: Aminoacyl tRNA synthase complex-interacting multifunctional protein 2 (Homo sapiens, UniProt Q13155); experiment: Inhibition of nanoluciferase-tagged AIMP2 DX2 isoform (unknown origin) expressed in human A549 cells measured after 4 hrs by luminescence assay; type: cell-based
[10] = target: T1, Aminoacyl tRNA synthase complex-interacting multifunctional protein 2 (Homo sapiens, UniProt Q13155); experiment: Inhibition of nanoluciferase-tagged AIMP2 (unknown origin) expressed in human A549 cells measured after 4 hrs by luminescence assay; type: cell-based
T1 sequence (Q13155 whole entry): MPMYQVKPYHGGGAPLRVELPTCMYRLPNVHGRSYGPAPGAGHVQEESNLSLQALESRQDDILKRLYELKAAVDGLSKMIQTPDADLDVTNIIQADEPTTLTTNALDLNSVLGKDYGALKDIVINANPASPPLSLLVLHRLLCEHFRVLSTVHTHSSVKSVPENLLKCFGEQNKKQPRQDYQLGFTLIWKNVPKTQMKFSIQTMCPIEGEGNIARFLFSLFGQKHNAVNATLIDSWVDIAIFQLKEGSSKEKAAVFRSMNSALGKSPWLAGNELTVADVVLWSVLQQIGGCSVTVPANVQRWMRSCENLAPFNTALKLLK

Row | Compound | Activity [1] | Activity (A549 [2]) | Activity (NCI-H460 [3]) | inhibition (A549 [4]) | EC50 [5] [µM] | Activity (NCI-H460 [6]) | EC50 (A549 [7]) [µM] | Activity (NCI-H460 [8]) | IC50 [9] [µM] | IC50 [10] [µM]
1 | COc1ccc(-c2csc(NC(=O)[C@H](Cc3c[nH]c4ccccc34)NS(=O)(=O)c3ccc(C)cc3)n2)cc1 | Non-Toxic | Active | Active | inactive | > 100 | Dose-dependent effect | 1.2 | Active |  | 
2 | Cc1ccc(S(=O)(=O)N[C@@H](Cc2c[nH]c3ccccc23)C(=O)Nc2ccc(N3CCOCC3)cc2)cc1 |  |  |  |  | > 100 |  | 14.2 |  |  | 
3 | Cc1ccc(S(=O)(=O)N[C@@H](CC(C)C)C(=O)N2CCOCCOCCOCC2)cc1 |  |  |  |  | > 100 |  | 40.8 |  | 40.1 | > 100
